Test results published in patent US11298333B1, “Methods of reducing the risk of cardiovascular events in a subject” (Amarin Pharmaceuticals Ireland Limited, priority 2018, dated 2022).
Where two headings read alike, the source gives them in different places.

Tested on: hypertriglyceridemic patients with cardiovascular disease or at high risk for cardiovascular disease
Assay type: in vivo
Details: for Key secondary composite endpoint: relative risk reduction vs placebo / Primary composite endpoint: relative risk reduction vs placebo: over 5 years
Text: The following study, also referred to as the REDUCE-IT clinical trial, was a large cardiovascular (CV) outcome trial designed to assess CV risk reduction benefit of AMR101 treatment (commercially known as VASCEPA®) versus placebo on the 5-point primary composite endpoint: CV death, non-fatal stroke, non-fatal myocardial infarction (MI), coronary revascularizations, or unstable angina requiring hospitalization.
A multi-center, prospective, randomized, double-blind, placebo-controlled, parallel-group study was performed to evaluate the effect of AMR101 (4 g per day) on cardiovascular health and mortality in hypertriglyceridemic patients with cardiovascular disease or at high risk for cardiovascular disease. The intended expanded indication of the study was treatment with AMR101 as an add-on to statin therapy to reduce the risk of cardiovascular events in patients with clinical cardiovascular disease or with multiple risk factors for cardiovascular disease.
The primary objective of this study was, in patients at LDL-C goal while on statin therapy, with established cardiovascular disease (CVD) or at high risk for CVD, and hypertriglyceridemia (e.g., fasting triglycerides (TG) ≥200 mg/dL and <500 mg/dL), to evaluate the effect of AMR101 4 g daily on time from randomization to first occurrence of any component of the composite of the following major CV events: CV death; nonfatal MI; (including silent MI; electrocardiograms (ECGs) were performed annually for the detection of silent MIs); nonfatal stroke; coronary revascularization; and unstable angina determined to be caused by myocardial ischemia by invasive/non-invasive testing and requiring emergent hospitalization.
The key secondary objective of this study was to evaluate the effect of AMR101 4 g daily on the time from randomization to the first occurrence of the composite of following major CV events: CV death, nonfatal MI (including silent MI), and nonfatal stroke.
Other secondary objectives for this study were to evaluate the effect of therapy on time from randomization to the first occurrence of the following individual or composite endpoints: composite of CV death or nonfatal MI (including silent MI); fatal or nonfatal MI (including silent MI); non-elective coronary revascularization represented as the composite of emergent or urgent classifications; CV death; unstable angina determined to be caused by myocardial ischemia by invasive/non-invasive testing and requiring emergent hospitalization; fatal or nonfatal stroke; composite of total mortality, nonfatal MI (including silent MI), or nonfatal stroke; and total mortality.
Primary Efficacy Endpoint: The primary efficacy endpoint was time from randomization to the first occurrence of the composite of the following clinical events: CV death; nonfatal MI (including silent MI; ECGs were performed annually for the detection of silent MIs); nonfatal stroke; coronary revascularization; and unstable angina determined to be caused by myocardial ischemia by invasive/non-invasive testing and requiring emergent hospitalization. The first occurrence of any of these major adverse vascular events during the follow-up period of the study were included in the incidence.
Secondary Efficacy Endpoints: The key secondary efficacy endpoint was the time from randomization to the first occurrence of the composite of CV death, nonfatal MI (including silent MI), or nonfatal stroke. […]

[1] = 4 g/day, ITT, hierarchical secondary endpoint
[2] = 4 g/day, ITT, median follow-up 4.9 years
[3] = 4 g/day, ITT, time to first event, median follow-up 4.9 years
[4] = 4 g/day, ITT, time to first event
[5] = 4 g/day, ITT, time to first event, listed as AMR101

## CC/C=C\C/C=C\C/C=C\C/C=C\C/C=C\CCCC(=O)OCC [Icosapent Ethyl, eicosapentaenoic acid ethyl ester]
4 g/day
  Cardiac arrest: reduction vs placebo: 48%
  Reduction in heart attack vs placebo: 31%
  Sudden death: reduction vs placebo: 31%
4 g/day, ITT
  Cardiovascular death: relative risk reduction vs placebo: 20%
  Composite of cardiovascular death or nonfatal myocardial infarction: RRR: 25%
  Composite of total mortality, nonfatal myocardial infarction, or nonfatal stroke: RRR: 23%
  Fatal or nonfatal myocardial infarction: RRR: 31%
  Fatal or nonfatal stroke: RRR: 28%
  Total mortality: HR vs placebo: 0.87
  Total mortality: relative risk reduction vs placebo: 13%
[1]
  Cardiovascular death: HR vs placebo: 0.80
  Cardiovascular death: patients with event: 4.3%
4 g/day, ITT, last hierarchical secondary endpoint
  Total mortality (death from any cause): patients with event: 6.7%
[2]
  Key secondary composite endpoint: absolute risk reduction vs placebo: 3.6%
  Primary composite endpoint: absolute risk reduction vs placebo: 4.8%
[3]
  Key secondary composite endpoint (CV death, nonfatal MI, or nonfatal stroke): patients with event: 11.2%
  Primary composite endpoint (CV death, nonfatal MI, nonfatal stroke, coronary revascularization, or unstable angina): patients with event: 17.2%
[4]
  Key secondary composite endpoint: relative risk reduction vs placebo: 26%
  Primary composite endpoint: relative risk reduction vs placebo: 25%
[5]
  Key secondary composite endpoint: relative risk reduction vs placebo: 26%
  Primary composite endpoint: relative risk reduction vs placebo: 25%
4 g/day, no significant difference vs placebo
  Adjudicated tertiary endpoint of heart failure: patients with event: 4.1%
Post hoc
  Primary endpoint: risk reduction in post hoc analysis excluding patients with diarrhea: 25%
Tertiary endpoint, 4 g/day, ITT
  Adjudicated sudden cardiac death: patients with event: 1.5%
Tertiary endpoint, vs placebo
  Cardiac Arrest: HR (95% CI): 0.52 (0.31, 0.86)
  Coronary Revascularization: HR (95% CI): 0.66 (0.58, 0.76)
  Elective Revascularization: HR (95% CI): 0.68 (0.57, 0.82)
  Emergent Revascularization: HR (95% CI): 0.62 (0.42, 0.92)
  Ischemic Stroke: HR (95% CI): 0.64 (0.49, 0.85)
  New Heart Failure Requiring Hospitalization: HR (95% CI): 0.97 (0.77, 1.22)
  New Heart Failure: HR (95% CI): 0.95 (0.77, 1.17)
  Primary Endpoint in Patients with Diabetes at Baseline: HR (95% CI): 0.77 (0.68, 0.87)
  Salvage Revascularization: HR (95% CI): 0.00 (0.00, —)
  Urgent Revascularization: HR (95% CI): 0.66 (0.54, 0.79)
